Source: patent US20080003438A1, “Heterocyclic siloxanes for use in biocidal coatings and materials” (Auburn University, priority 2002, published 2008)

Experiments:
[1] = Chlorine loading of coated, chlorinated surfaces by iodometric/thiosulfate titration; format: physicochemical; details: for average chlorine loading on the swatches: 10% CLOROX 30 min; for chlorine content: chlorinated in household washing machine; for chlorine bound to hard surface: 10% CLOROX
Protocol: Swatches of Style 400 Bleached 100% Cotton Print Cloth (Testfabrics, Inc.) were treated with 3-triethoxysilylpropyl-5,5-dimethylhydantoin, prepared as described in Example 1, in the following manner. A treatment bath was prepared containing 5.0 g of 3-triethoxysilylpropyl-5,5-dimethylhydantoin, 3.0 g of potassium thiocyanate, 50 mL of ethanol, and 50 mL of water. After 1 hour of equilibration of the bath mixture, the cotton swatches were soaked in the bath for 10 min. After partially drying in air at ambient temperature, the swatches were cured for 1 hour at 95° C. The swatches were then soaked in a 0.5% liquid detergent solution for 15 min, rinsed with tap water, and allowed to dry in air at ambient temperature. […] The swatches were stored in a vacuum desiccator until use.
The siloxane polymer described above was coated onto 100% cotton fabric. This was accomplished by soaking swatches of the material for about 2 minutes at ambient temperature in a bath containing 5 g of the polysiloxane, 70 mL of ethanol, and 40 mL of water. The swatches were cured at 130° C. in air for 20 minutes, then soaked in 1.5% liquid detergent for 15 minutes at ambient temperature, and then rinsed thoroughly with water. […] An iodometric/thiosulfate titration indicated a chlorine loading on the cotton material of about 0.42%.
Finally, a wash test was performed on swatches of cotton containing the monomer 3-triethoxysilylpropyl-5,5-dimethylhydantoin coating and the polysiloxane coating, each chlorinated and unchlorinated, for comparison purposes. Two treatment baths were prepared, one containing an 8% solution of 3-triethoxysilylpropyl-5,5-dimethylhydantoin in a 50% solution of ethanol in water, the other containing an 8% solution of siloxane polymer prepared as described above in a 66.7% solution of ethanol in water. Identical cotton swatches were soaked in the two baths for 2.5 minutes at ambient temperature, cured in air at 130° C. for 20 minutes, soaked in 1.5% liquid detergent at ambient temperature for 15 minutes, rinsed thoroughly with water, and dried in air at 50° C. for 30 minutes. Then one-half of the swatches of each type were chlorinated by soaking them in 5% CLOROX at ambient temperature for 45 minutes. These chlorinated samples were rinsed thoroughly with water and dried in air at 50° C. for 30 minutes to remove all occluded free chlorine. Iodometric/thiosulfate titrations were performed on representative samples to determine initial chlorine loadings. The average chlorine loading for the silane monomer-coated samples was 0.61%; for the siloxane polymer-coated samples, the average chlorine loading was 0.40%. Then all types of coated swatches were subjected to laundry washing cycles using AATCC Test Method 61 (Test 2A Procedure). Samples were evaluated after 5, 10, and 50 washing cycles for retention of the coatings. Those samples not chlorinated before washing were chlorinated by the procedure described above in order to assess how much chlorine could be loaded after variable numbers of washing cycles. Those chlorinated before washing were divided into two groups with half being assessed for chlorine loading without rechlorination, the other half being rechlorinated and then assessed for chlorine loading. Three observations are clearly evident from the data in Table 3. First, both the silane and the siloxane coatings are partially lost upon successive washings. Second, prechlorination reduces the rate of loss, probably due to increasing the hydrophobicity of the surface, thus reducing the rate of hydrolysis loss of the siloxane coatings. Third, the siloxane coating, which is not chlorinated to as high a level as the silane one upon initial chlorination, is lost at a slower rate than is the silane coating. For all of the coatings, at least partial biocidal efficacy would be regenerated upon rechlorination after 50 washing cycles. […]

[2] = tested on: spores of Bacillus subtilis; experiment: Anti Bacillus spore activity of chlorine charged coated surfaces; format: cell-based; details: 96 hours
Protocol: Soft and hard surfaces were treated by exposure to solutions of 3-triethoxysilylpropyl-5,5-dimethylhydantoin, prepared as described in Example 1, and charged with chlorine as described in Example 11. Challenge inocula for the detection of activity versus bacterial spores were prepared from suspensions of spores of Bacillus subtilis. Recovery of viable organisms from challenged surfaces was done on TSA plates, and enumeration was accomplished by the plate dilution method.

[3] = Stability test during dry storage of coated cotton samples; format: physicochemical
Protocol: A stability test during dry storage was also conducted on cotton samples coated with 3-triethoxysilylpropyl-5,5-dimethylhydantoin. One half of the samples were coated in a bath containing 8% of the 3-triethoxysilylpropyl-5,5-dimethylhydantoin in 50% ethanol in water solution. The other half were treated in the same manner except that KSCN was added to the treatment bath as described above. The chlorination conditions and analytical method of measuring chlorine loadings were the same as discussed above. The samples were stored in plastic bags at ambient temperature; the bags were not air-tight. The average chlorine loading for the samples treated in the presence of KSCN declined from 0.776% to 0.680% over a period of 50 days. For the samples not treated in the presence of KSCN, the decline was from 0.620% to 0.540% over the same 50 day period. It can be concluded that the coated cotton samples were fairly stable to loss of chlorine in dry storage.

CCO[Si](CCCN1C(=O)NC(C)(C)C1=O)(OCC)OCC [3-triethoxysilylpropyl-5,5-dimethylhydantoin]
chlorine on hard surface ([1]; PVC (Example 12)): 4.1 μg per cm^2 | average initial chlorine loading before washing ([1]; cotton, 8% treatment bath, cured 130° C. 20 min, 5% CLOROX 45 minutes): 0.61% | average chlorine loading on the swatches ([1]; cotton, KSCN in treatment bath): 0.61±0.14% | chlorine content ([1]; cotton): approximately 4000 ppm Cl^+ | average chlorine loading on the swatches ([1]; cotton, without KSCN): 0.49±0.07% | chlorine bound to hard surface ([1]; marble tile): 6.9 μg Cl^+ per square cm | chlorine on hard surface ([1]; marble tiles (Example 12)): 6.9 μg per cm^2 | chlorine bound to hard surface ([1]; porcelain tile): 3.3 μg Cl^+ per square cm | chlorine concentration on soft surface ([1]; rayon fabrics (Example 12)): 4000 ppm | chlorine content ([1]; sponge slabs): 1000-2000 ppm | chlorine concentration on soft surface ([1]; synthetic fibers (Example 12)): approximately 800 ppm | reduction in viable B. subtilis spore counts ([2]; cellulose sponge): > 5 logs | reduction in viable B. subtilis spore counts ([2]; cotton and polyester): > 2 logs | reduction in viable B. subtilis spore counts ([2]; hard surfaces (marble, vinyl, porcelain)): up to 4 logs | average chlorine loading ([3]; cotton not treated in presence of KSCN, after 50 days in plastic bags at ambient temperature): 0.540% | average chlorine loading ([3]; cotton not treated in presence of KSCN, start of dry storage): 0.620% | average chlorine loading ([3]; cotton treated in presence of KSCN, after 50 days in plastic bags at ambient temperature): 0.680% | average chlorine loading ([3]; cotton treated in presence of KSCN, start of dry storage): 0.776%
